Measurements reported in ChEMBL document CHEMBL1201862, “PubChem BioAssay data set” (2004).
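48-hour exposure; five concentrations; linearly interpolated endpoints. At the GI50, growth is halved.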 Activity calls are given as the source filed them. Rule as the data show it: active = GI50 up to about 1.1 µM and inactive = higher.

Assays:
Experiment in all cases: inhibition of tumour cell growth, NCI panel, 48 h
A549 = system: A549
CAKI-1 = system: CAKI-1
CCRF-CEM = system: CCRF-CEM
HCC 2998 = system: HCC 2998
HCT-116 = system: HCT-116
HT-29 = system: HT-29
K562 = system: K562
MCF7 = system: MCF7
MDA-MB-231 = system: MDA-MB-231
MDA-MB-435 = system: MDA-MB-435
MOLT-4 = system: MOLT-4
NCI-H226 = system: NCI-H226
SK-MEL-28 = system: SK-MEL-28
SK-MEL-5 = system: SK-MEL-5
SK-OV-3 = system: SK-OV-3
SN12C = system: SN12C
T47D = system: T47D
U-251 = system: U-251
MDA-N = system: MDA-N
RPMI-8226 = system: RPMI-8226

N#[N+]c1cc2c(cc1Br)-c1ccccc1C2
GI50 (A549): 95.9 µM (inactive) | GI50 (CAKI-1): 97.5 µM (inactive) | GI50 (CCRF-CEM): 0.586 µM (active) | GI50 (HCC 2998): 85.5 µM (inactive) | GI50 (HCT-116): > 100 µM (inactive) | GI50 (HT-29): > 100 µM (inactive) | GI50 (K562): 8.39 µM (inactive) | GI50 (MCF7): 45.5 µM (inactive) | GI50 (MDA-MB-231): > 100 µM (inactive) | GI50 (MDA-MB-435): 81.8 µM (inactive) | GI50 (MOLT-4): 10.3 µM (inactive) | GI50 (NCI-H226): 51.6 µM (inactive) | GI50 (SK-MEL-28): > 100 µM (inactive) | GI50 (SK-MEL-5): 48.5 µM (inactive) | GI50 (SK-OV-3): > 100 µM (inactive) | GI50 (SN12C): > 100 µM (inactive) | GI50 (T47D): > 100 µM (inactive) | GI50 (U-251): 82.2 µM (inactive)

CCC(O)(Cc1ccc(OC)cc1)c1ccc(OC)cc1 (configuration not stated)
GI50 (A549): > 100 µM (inactive) | GI50 (CAKI-1): > 100 µM (inactive) | GI50 (CCRF-CEM): > 100 µM (inactive) | GI50 (HCC 2998): > 100 µM (inactive) | GI50 (HCT-116): > 100 µM (inactive) | GI50 (HT-29): > 100 µM (inactive) | GI50 (K562): > 100 µM (inactive) | GI50 (MCF7): > 100 µM (inactive) | GI50 (MDA-MB-231): > 100 µM (inactive) | GI50 (MDA-MB-435): > 100 µM (inactive) | GI50 (MDA-N): > 100 µM (inactive) | GI50 (MOLT-4): > 100 µM (inactive) | GI50 (NCI-H226): > 100 µM (inactive) | GI50 (RPMI-8226): > 100 µM (inactive) | GI50 (SK-MEL-5): > 100 µM (inactive) | GI50 (SK-OV-3): > 100 µM (inactive) | GI50 (SN12C): > 100 µM (inactive) | GI50 (U-251): > 100 µM (inactive)

C[C@@H]1[C@@H](c2ccccc2)O[B-](c2ccccc2)(c2ccccc2)N1C
GI50 (A549): 58.6 µM (inactive) | GI50 (CAKI-1): 27.9 µM (inactive) | GI50 (CCRF-CEM): 12.9 µM (inactive) | GI50 (HCT-116): 32.9 µM (inactive) | GI50 (HT-29): 85.9 µM (inactive) | GI50 (K562): 36.4 µM (inactive) | GI50 (MDA-MB-231): 40.7 µM (inactive) | GI50 (MDA-MB-435): 35.4 µM (inactive) | GI50 (MDA-N): 52 µM (inactive) | GI50 (MOLT-4): 43.7 µM (inactive) | GI50 (NCI-H226): 36.5 µM (inactive) | GI50 (RPMI-8226): 32 µM (inactive) | GI50 (SK-MEL-28): 52.1 µM (inactive) | GI50 (SK-MEL-5): 30 µM (inactive) | GI50 (SK-OV-3): 55.3 µM (inactive) | GI50 (SN12C): 61.5 µM (inactive) | GI50 (T47D): 38.9 µM (inactive) | GI50 (U-251): > 100 µM (inactive)

Cc1cc(=O)oc2cc(OCc3nc4ccccc4c(=O)n3-c3ccccc3)ccc12
GI50 (A549): > 100 µM (inactive) | GI50 (CAKI-1): > 100 µM (inactive) | GI50 (CCRF-CEM): > 100 µM (inactive) | GI50 (HCC 2998): > 100 µM (inactive) | GI50 (HCT-116): > 100 µM (inactive) | GI50 (HT-29): > 100 µM (inactive) | GI50 (K562): > 100 µM (inactive) | GI50 (MOLT-4): > 100 µM (inactive) | GI50 (NCI-H226): > 100 µM (inactive) | GI50 (RPMI-8226): > 100 µM (inactive) | GI50 (SK-MEL-28): > 100 µM (inactive) | GI50 (SK-MEL-5): > 100 µM (inactive) | GI50 (SK-OV-3): 53.6 µM (inactive) | GI50 (SN12C): > 100 µM (inactive) | GI50 (U-251): 54.7 µM (inactive)

Cc1ccc([Se](=C(C(=O)c2ccccc2)C(=O)c2ccccc2)c2ccc(C)cc2)cc1
GI50 (A549): 25.3 µM (inactive) | GI50 (CAKI-1): 19.5 µM (inactive) | GI50 (HCT-116): 34.4 µM (inactive) | GI50 (HT-29): 18.7 µM (inactive) | GI50 (K562): 28.8 µM (inactive) | GI50 (MCF7): 26.7 µM (inactive) | GI50 (MDA-MB-231): 15.8 µM (inactive) | GI50 (MDA-MB-435): 20.5 µM (inactive) | GI50 (MOLT-4): 16 µM (inactive) | GI50 (NCI-H226): 20.2 µM (inactive) | GI50 (RPMI-8226): 4.14 µM (inactive) | GI50 (SK-MEL-28): 31 µM (inactive) | GI50 (SK-MEL-5): 18.7 µM (inactive) | GI50 (SK-OV-3): 43.7 µM (inactive) | GI50 (SN12C): 12.8 µM (inactive) | GI50 (T47D): 34.3 µM (inactive) | GI50 (U-251): 20.6 µM (inactive)

Cc1ccc(C)c(NC(=O)c2cc(-c3ccc([N+](=O)[O-])cc3)nc(N)n2)c1
GI50 (A549): > 100 µM (inactive) | GI50 (CAKI-1): > 100 µM (inactive) | GI50 (CCRF-CEM): > 100 µM (inactive) | GI50 (HCC 2998): > 100 µM (inactive) | GI50 (HCT-116): > 100 µM (inactive) | GI50 (HT-29): > 100 µM (inactive) | GI50 (K562): > 100 µM (inactive) | GI50 (MOLT-4): > 100 µM (inactive) | GI50 (NCI-H226): > 100 µM (inactive) | GI50 (RPMI-8226): > 100 µM (inactive) | GI50 (SK-MEL-28): > 100 µM (inactive) | GI50 (SK-MEL-5): > 100 µM (inactive) | GI50 (SK-OV-3): > 100 µM (inactive) | GI50 (SN12C): > 100 µM (inactive) | GI50 (U-251): > 100 µM (inactive)

COC(=O)c1cc2c3c(ccc2[nH]1)N(C(=O)c1cc2cc(OC)c(OC)c(OC)c2[nH]1)CC3CCl (configuration not stated)
GI50 (A549): 5.37 µM (inactive) | GI50 (CCRF-CEM): 5.98 µM (inactive) | GI50 (HCC 2998): > 100 µM (inactive) | GI50 (HCT-116): 4.46 µM (inactive) | GI50 (HT-29): 8.55 µM (inactive) | GI50 (MCF7): 3.94 µM (inactive) | GI50 (MDA-MB-231): > 100 µM (inactive) | GI50 (MDA-MB-435): 13.7 µM (inactive) | GI50 (MOLT-4): 1.57 µM (inactive) | GI50 (NCI-H226): 14.3 µM (inactive) | GI50 (RPMI-8226): 1.69 µM (inactive) | GI50 (SK-MEL-28): > 24.1 µM (inactive) | GI50 (SK-MEL-5): 2.23 µM (inactive) | GI50 (SK-OV-3): > 100 µM (inactive) | GI50 (T47D): > 100 µM (inactive) | GI50 (U-251): 6.58 µM (inactive)

Clc1ccc(-n2nnc(C3=NCCCN3)c2-c2ccccc2)cc1
GI50 (A549): > 100 µM (inactive) | GI50 (CAKI-1): > 100 µM (inactive) | GI50 (CCRF-CEM): > 100 µM (inactive) | GI50 (HCC 2998): > 100 µM (inactive) | GI50 (HCT-116): > 100 µM (inactive) | GI50 (HT-29): > 100 µM (inactive) | GI50 (K562): > 100 µM (inactive) | GI50 (MOLT-4): > 100 µM (inactive) | GI50 (NCI-H226): > 100 µM (inactive) | GI50 (RPMI-8226): > 100 µM (inactive) | GI50 (SK-MEL-28): > 100 µM (inactive) | GI50 (SK-MEL-5): 75.2 µM (inactive) | GI50 (SK-OV-3): > 100 µM (inactive) | GI50 (SN12C): > 100 µM (inactive) | GI50 (U-251): > 100 µM (inactive)

CC(C)C(Nc1c2ccccc2[n+]([O-])c2ccccc12)C(=O)O (configuration not stated)
GI50 (A549): > 100 µM (inactive) | GI50 (CAKI-1): > 100 µM (inactive) | GI50 (CCRF-CEM): 47.8 µM (inactive) | GI50 (HCC 2998): > 100 µM (inactive) | GI50 (HCT-116): 44.6 µM (inactive) | GI50 (HT-29): > 100 µM (inactive) | GI50 (K562): 38.5 µM (inactive) | GI50 (MOLT-4): 10 µM (inactive) | GI50 (NCI-H226): 35.6 µM (inactive) | GI50 (RPMI-8226): 19.7 µM (inactive) | GI50 (SK-MEL-28): 43.1 µM (inactive) | GI50 (SK-MEL-5): 34.2 µM (inactive) | GI50 (SK-OV-3): > 100 µM (inactive) | GI50 (SN12C): 61.1 µM (inactive) | GI50 (U-251): > 100 µM (inactive)
